In ChEMBL document CHEMBL5321219, “Selective degradation of cellular BRD3 and BRD4-L promoted by PROTAC molecules in six cancer cell lines” (Eur J Med Chem, 2023):
The source made the active and inactive calls. The calls are words filed in the database; no cut-off is given here.

Columns and labels:
[1] = target: T1, Protein cereblon/Bromodomain-containing protein 3 (Homo sapiens) (UniProt Q15059+Q96SW2); assay: PROTAC activity at CRBN/BRD3 in human MM1.S cells assessed as induction of protein degradation measured after 24 hrs by Western blot analysis; type: cell-based
[2] = target: T2, Protein cereblon/Bromodomain-containing protein 4 (Homo sapiens) (UniProt O60885+Q96SW2); assay: PROTAC activity at CRBN/BRD4-L in human MM1.S cells assessed as induction of protein degradation at 30 nM pretreated with 0.2 to 10 uM MG132 for 2 hrs followed by compound addition and measured after 4 hrs by Western blot analysis; type: cell-based
MM1.S [3] = assay: Downregulation of BRD4 expression in human MM1.S cells by proteomic analysis; type: functional, cell-based
[4] = target: T3, Protein cereblon/Bromodomain-containing protein 2 (Homo sapiens) (UniProt P25440+Q96SW2); assay: PROTAC activity at CRBN/BRD2 in human HepG2 cells assessed as induction of protein degradation at 10 to 3000 nM measured after 24 hrs by Western blot analysis; type: cell-based; details: dose 10-3000 nM
MM1.S [5] = assay: Induction of cell cycle arrest in human MM1.S cells assessed as accumulation of cells at G1 phase at 3 nM incubated for 24 hrs by flow cytometry analysis (reference value: 56.32%); type: functional
MM1.S [6] = assay: Induction of cell cycle arrest in human MM1.S cells assessed as accumulation of cells at S phase at 100 nM incubated for 24 hrs by flow cytometry analysis (reference value: 22.37%); type: functional
[7] = target: T2, Protein cereblon/Bromodomain-containing protein 4 (Homo sapiens); assay: PROTAC activity at CRBN/BRD4-L in human MM1.S cells assessed as induction of protein degradation at 30 nM measured after 3 to 6 hrs by Western blot analysis; type: cell-based; details: time 3-6 hrs
[8] = target: T1, Protein cereblon/Bromodomain-containing protein 3 (Homo sapiens); assay: PROTAC activity at CRBN/BRD3 in human HeLa cells assessed as induction of protein degradation measured after 24 hrs by Western blot analysis; type: cell-based; details: dose 1-300 nM
[9] = target: T2, Protein cereblon/Bromodomain-containing protein 4 (Homo sapiens); assay: PROTAC activity at CRBN/BRD4-L in human A549 cells assessed as induction of protein degradation measured after 24 hrs by Western blot analysis; type: cell-based; details: dose 3-1000 nM
[10] = target: T4, Bromodomain-containing protein 3 (Homo sapiens, UniProt Q15059); assay: Binding affinity to recombinant human BRD3 BD2 (306 to 417 residues) assessed as inhibition constant by fluorescence polarization binding assay
MM1.S [11] = assay: Antiproliferative activity against human MM1.S cells assessed as cell growth inhibition measured after 4 days by CellTitre-Glo assay; type: functional, cell-based; details: 96 h
MM1.S [12] = assay: Induction of cell cycle arrest in human MM1.S cells assessed as accumulation of cells at G2 phase at 30 nM incubated for 24 hrs by flow cytometry analysis (reference value: 14.68%); type: functional
[13] = target: T4, Bromodomain-containing protein 3; assay: Binding affinity to recombinant human BRD3 BD1 (24 to 144 residues) assessed as inhibition constant by fluorescence polarization binding assay
[14] = target: T1, Protein cereblon/Bromodomain-containing protein 3 (Homo sapiens); assay: PROTAC activity at CRBN/BRD3 in human A549 cells assessed as induction of protein degradation measured after 24 hrs by Western blot analysis; type: cell-based; details: dose 3-1000 nM
[15] = target: T2, Protein cereblon/Bromodomain-containing protein 4 (Homo sapiens); assay: PROTAC activity at CRBN/BRD4-S in human MCF7 cells assessed as induction of protein degradation at 1 to 300 nM measured after 24 hrs by Western blot analysis; type: cell-based; details: dose 1-300 nM
A549 = assay: Antiproliferative activity against human A549 cells assessed as cell growth inhibition measured after 4 days by CCK-8 assay; type: functional, cell-based; details: A549, 96 h
[16] = target: T3, Protein cereblon/Bromodomain-containing protein 2 (Homo sapiens); assay: PROTAC activity at CRBN/BRD2 in human MCF7 cells assessed as induction of protein degradation at 1 to 300 nM measured after 24 hrs by Western blot analysis; type: cell-based; details: dose 1-300 nM
[17] = target: T1, Protein cereblon/Bromodomain-containing protein 3 (Homo sapiens); assay: PROTAC activity at CRBN/BRD3 in human HGC-27 cells assessed as induction of protein degradation measured after 24 hrs by Western blot analysis; type: cell-based; details: dose 0.1-30 nM
MM1.S [18] = assay: Induction of cell cycle arrest in human MM1.S cells assessed as accumulation of cells at G1 phase at 100 nM incubated for 24 hrs by flow cytometry analysis (reference value: 56.32%); type: functional
[19] = target: T2, Protein cereblon/Bromodomain-containing protein 4 (Homo sapiens); assay: PROTAC activity at CRBN/BRD4-L in human MCF7 cells assessed as induction of protein degradation at 30 nM measured after 3 to 6 hrs by Western blot analysis; type: cell-based; details: time 3-6 hrs
[20] = target: T1, Protein cereblon/Bromodomain-containing protein 3 (Homo sapiens); assay: PROTAC activity at CRBN/BRD3 in human HepG2 cells assessed as induction of protein degradation measured after 24 hrs by Western blot analysis; type: cell-based; details: dose 10-3000 nM
MM1.S [21] = assay: Induction of cell cycle arrest in human MM1.S cells assessed as accumulation of cells at G1 phase at 300 nM incubated for 24 hrs by flow cytometry analysis (reference value: 56.32%); type: functional
MM1.S [22] = assay: Downregulation of BRD3 expression in human MM1.S cells by proteomic analysis; type: functional, cell-based
MM1.S [23] = assay: Induction of cell cycle arrest in human MM1.S cells assessed as accumulation of cells at S phase at 3 nM incubated for 24 hrs by flow cytometry analysis (reference value: 22.37%); type: functional
[24] = target: T1, Protein cereblon/Bromodomain-containing protein 3 (Homo sapiens); assay: PROTAC activity at CRBN/BRD3 in human MM1.S cells assessed as induction of protein degradation at 2 nM measured after 24 hrs by Western blot analysis; type: cell-based
[25] = target: T2, Protein cereblon/Bromodomain-containing protein 4 (Homo sapiens); assay: PROTAC activity at CRBN/BRD4-S in human U-937 cells assessed as induction of protein degradation by Western blot analysis; type: cell-based
[26] = target: T1, Protein cereblon/Bromodomain-containing protein 3 (Homo sapiens); assay: PROTAC activity at CRBN/BRD3 in human U-937 cells assessed as induction of protein degradation by Western blot analysis; type: cell-based
[27] = target: T1, Protein cereblon/Bromodomain-containing protein 3 (Homo sapiens); assay: PROTAC activity at CRBN/BRD3 in human MCF7 cells assessed as induction of protein degradation at 30 nM measured after 3 to 6 hrs by Western blot analysis; type: cell-based; details: time 3-6 hrs
[28] = target: T1, Protein cereblon/Bromodomain-containing protein 3 (Homo sapiens); assay: PROTAC activity at CRBN/BRD3 in human MM1.S cells assessed as induction of protein degradation at 30 nM pretreated with lenalidomide for 2 hrs followed by compound addition and measured after 4 hrs by Western blot analysis; type: cell-based
[29] = target: T2, Protein cereblon/Bromodomain-containing protein 4 (Homo sapiens); assay: PROTAC activity at CRBN/BRD4-L in human MV4-11 cells assessed as induction of protein degradation at 0.1 to 30 nM measured after 24 hrs by Western blot analysis; type: cell-based; details: dose 0.1-30 nM
[30] = target: T2, Protein cereblon/Bromodomain-containing protein 4 (Homo sapiens); assay: PROTAC activity at CRBN/BRD4-S in human HGC-27 cells assessed as induction of protein degradation at 0.1 to 30 nM measured after 24 hrs by Western blot analysis; type: cell-based; details: dose 0.1-30 nM
MM1.S [31] = assay: Induction of cell cycle arrest in human MM1.S cells assessed as accumulation of cells at G2 phase at 100 nM incubated for 24 hrs by flow cytometry analysis (reference value: 14.68%); type: functional
[32] = target: T3, Protein cereblon/Bromodomain-containing protein 2 (Homo sapiens); assay: PROTAC activity at CRBN/BRD2 in human U-937 cells assessed as induction of protein degradation by Western blot analysis; type: cell-based
MCF7 = assay: Antiproliferative activity against human MCF7 cells assessed as cell growth inhibition measured after 4 days by CCK-8 assay; type: functional, cell-based; details: MCF7, 96 h
[33] = target: T2, Protein cereblon/Bromodomain-containing protein 4 (Homo sapiens); assay: PROTAC activity at CRBN/BRD4-L in human MM1.S cells assessed as induction of protein degradation at 30 nM by Western blot analysis; type: cell-based; details: TDE = time-dependent effect

T3 sequence (P25440 whole entry, looked up): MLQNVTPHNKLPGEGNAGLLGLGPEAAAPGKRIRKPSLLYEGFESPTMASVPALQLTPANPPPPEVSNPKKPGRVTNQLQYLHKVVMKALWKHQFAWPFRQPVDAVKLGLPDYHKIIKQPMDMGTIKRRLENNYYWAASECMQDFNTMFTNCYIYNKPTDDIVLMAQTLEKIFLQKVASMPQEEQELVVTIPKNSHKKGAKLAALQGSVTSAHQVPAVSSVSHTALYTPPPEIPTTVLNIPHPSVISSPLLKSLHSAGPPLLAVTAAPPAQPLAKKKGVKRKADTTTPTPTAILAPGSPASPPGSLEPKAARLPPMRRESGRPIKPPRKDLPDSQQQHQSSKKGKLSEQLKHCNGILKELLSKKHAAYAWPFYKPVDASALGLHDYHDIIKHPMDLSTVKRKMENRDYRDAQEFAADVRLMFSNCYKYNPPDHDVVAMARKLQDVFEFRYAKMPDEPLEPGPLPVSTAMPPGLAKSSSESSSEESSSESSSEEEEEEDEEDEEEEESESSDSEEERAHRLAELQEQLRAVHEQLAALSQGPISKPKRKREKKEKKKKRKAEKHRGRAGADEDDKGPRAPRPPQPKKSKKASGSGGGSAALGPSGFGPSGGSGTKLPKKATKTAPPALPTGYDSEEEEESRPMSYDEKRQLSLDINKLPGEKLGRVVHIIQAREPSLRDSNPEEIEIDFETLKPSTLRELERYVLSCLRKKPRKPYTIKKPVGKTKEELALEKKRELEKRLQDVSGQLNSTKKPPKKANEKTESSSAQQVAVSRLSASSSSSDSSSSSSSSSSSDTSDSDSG
T3 sequence (Q96SW2 whole entry, looked up): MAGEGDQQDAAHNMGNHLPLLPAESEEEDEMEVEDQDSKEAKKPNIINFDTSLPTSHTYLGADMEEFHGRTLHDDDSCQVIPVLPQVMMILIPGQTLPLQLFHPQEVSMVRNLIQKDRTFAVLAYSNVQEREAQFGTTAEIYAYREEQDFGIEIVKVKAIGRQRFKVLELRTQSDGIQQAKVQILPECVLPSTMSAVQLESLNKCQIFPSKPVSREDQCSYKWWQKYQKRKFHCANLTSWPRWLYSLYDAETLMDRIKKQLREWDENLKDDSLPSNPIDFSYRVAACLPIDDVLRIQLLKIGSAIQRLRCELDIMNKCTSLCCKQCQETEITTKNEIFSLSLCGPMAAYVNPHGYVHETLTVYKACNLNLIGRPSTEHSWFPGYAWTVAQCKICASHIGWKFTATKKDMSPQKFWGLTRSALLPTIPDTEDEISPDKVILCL
T1 sequence (Q15059 2-726 limits assumed): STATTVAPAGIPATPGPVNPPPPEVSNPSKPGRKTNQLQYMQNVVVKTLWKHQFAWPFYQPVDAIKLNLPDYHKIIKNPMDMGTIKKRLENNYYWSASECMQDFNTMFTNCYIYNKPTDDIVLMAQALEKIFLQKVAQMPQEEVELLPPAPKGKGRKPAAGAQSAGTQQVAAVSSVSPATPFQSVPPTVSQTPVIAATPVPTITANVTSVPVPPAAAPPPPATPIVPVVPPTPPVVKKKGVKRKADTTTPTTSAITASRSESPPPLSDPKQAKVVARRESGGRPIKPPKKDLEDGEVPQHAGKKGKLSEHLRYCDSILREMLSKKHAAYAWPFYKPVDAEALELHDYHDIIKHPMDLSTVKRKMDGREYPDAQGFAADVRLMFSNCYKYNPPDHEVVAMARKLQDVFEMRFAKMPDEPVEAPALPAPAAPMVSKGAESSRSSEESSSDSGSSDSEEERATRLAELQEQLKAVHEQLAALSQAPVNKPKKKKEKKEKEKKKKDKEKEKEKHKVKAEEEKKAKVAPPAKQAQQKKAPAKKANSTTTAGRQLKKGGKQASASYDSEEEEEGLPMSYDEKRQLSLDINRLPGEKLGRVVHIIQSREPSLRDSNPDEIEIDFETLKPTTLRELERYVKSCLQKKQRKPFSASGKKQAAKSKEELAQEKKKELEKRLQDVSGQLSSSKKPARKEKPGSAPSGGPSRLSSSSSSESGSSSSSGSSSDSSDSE
T1 sequence (Q96SW2 whole entry partner): as the sequence (Q96SW2 whole entry, looked up) above
T2 sequence (Q96SW2 whole entry, looked up, other chains not shown): as the sequence (Q96SW2 whole entry, looked up) above
T4 sequence (Q15059 whole entry, the tested form may be a part): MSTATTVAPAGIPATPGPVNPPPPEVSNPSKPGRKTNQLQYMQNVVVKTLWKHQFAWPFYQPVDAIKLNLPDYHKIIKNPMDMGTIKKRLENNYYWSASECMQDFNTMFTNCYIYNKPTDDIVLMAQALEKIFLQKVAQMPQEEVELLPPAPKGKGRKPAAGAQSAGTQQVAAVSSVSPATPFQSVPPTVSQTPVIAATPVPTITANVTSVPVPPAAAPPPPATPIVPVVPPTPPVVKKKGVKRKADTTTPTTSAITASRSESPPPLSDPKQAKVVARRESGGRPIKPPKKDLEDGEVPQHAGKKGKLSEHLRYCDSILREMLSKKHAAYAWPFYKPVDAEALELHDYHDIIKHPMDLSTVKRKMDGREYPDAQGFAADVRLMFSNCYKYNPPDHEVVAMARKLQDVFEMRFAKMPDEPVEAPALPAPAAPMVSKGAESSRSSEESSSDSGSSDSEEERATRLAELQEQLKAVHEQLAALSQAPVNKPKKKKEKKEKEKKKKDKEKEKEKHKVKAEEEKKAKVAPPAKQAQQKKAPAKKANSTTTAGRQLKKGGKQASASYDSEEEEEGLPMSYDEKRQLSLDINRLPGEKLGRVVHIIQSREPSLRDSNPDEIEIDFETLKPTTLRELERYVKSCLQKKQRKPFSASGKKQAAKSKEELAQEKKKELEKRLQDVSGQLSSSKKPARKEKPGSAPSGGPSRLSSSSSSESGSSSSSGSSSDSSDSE

`Cc1nnc2n1-c1ccc(-c3ccc(CNCCCCc4cccc5c4CN(C4CCC(=O)NC4=O)C5=O)cc3)cc1C(Nc1ccc(Cl)cc1)CC2` (stereo not given) was tested, and the Activity [1] was “Dose-Dependent Effect”, the Activity [2] was “inactive” and the Activity (MM1.S [3]) was “Active”. For the same molecule, the Activity [4] was “inactive”, the Activity (MM1.S [5]) was 62.34% and the Activity (MM1.S [6]) was 13.23%. The Activity [7] was “Active”, the Activity [8] was “Dose-Dependent Effect” and the Activity [9] was “Dose-Dependent Effect”. It also gave a Ki [10] of 2.45 nM, an IC50 (MM1.S [11]) of 95.2 nM and an Activity (MM1.S [12]) of 15.18%. The Ki [13] was 12 nM, the Activity [14] was “Dose-Dependent Effect” and the Activity [15] was “inactive”. The IC50 (A549) was 14.3 µM, the Activity [16] was “inactive” and the Activity [17] was “Dose-Dependent Effect”. For the same molecule, the Activity (MM1.S [18]) was 65.67%, the Activity [19] was “Active” and the Activity [20] was “Dose-Dependent Effect”. For the same molecule, the Activity (MM1.S [21]) was 68.85%, the Activity (MM1.S [22]) was “Active” and the Activity (MM1.S [23]) was 17.72%. For the same molecule, the Activity [24] was “Active”, the Activity [25] was “Dose-Dependent Effect” and the Activity [26] was “inactive”. For the same molecule, the Activity [27] was “Active”, the Activity [28] was “inactive” and the Activity [29] was “Active”. For the same molecule, the Activity [30] was “inactive”, the Activity (MM1.S [31]) was 16.63% and the Activity [32] was “Dose-Dependent Effect”. For the same molecule, the IC50 (MCF7) was 230 nM and the Activity [33] was “Tde”.
